Test results from patent US11890268B2, “Dibenzothiophene derivatives and methods of treating cancer therewith” (Saint Louis University, priority 2018, dated 2024).
Blank lines part the entries; values can stand above or below the molecule they belong to.

Experiments:
[1] = Deoxygenation of sulfoxide to sulfide on UV-A exposure in plate well, HPLC; type: physicochemical; details: for Sulfide Concentration 30 Minutes After UV Exposure: Table 3; for Sulfide (MA-4) Concentration: addition of drug pre-UV exposure, n = 4
Method: (§1) MDA-MB-231 breast cancer cells were plated at 10,000 cells/well on three 96 well plates. After 24 hours incubation at 37° C., varying concentrations of MA-3 and MA-4 were added and incubated for 1 hour at 37° C. on only two plates (pre-UV and no UV exposure). One plate with cells were then left at room temperature covered for 30 min (no UV). The second plate (pre-UV) and the third plate (post-UV) were exposed to UV-A in a Luzchem photoreactor with 8 LZC-UVA lamps for 30 min. Varying concentrations of MA-3 and MA-4 were added to post UV exposure plate after irradiation. Plates were then incubated for 24 hours at 37° C. and then a MTS cell viability assay (Promega) was performed. Cell viability assay was run on a Flexstation3 mulitmode plate reader and percent viability was calculated. Statistical analyses were performed using GraphPad Prism program.
The concentrations were determined using HPLC injections on Agilent Technologies 1200 series HPLC—quaternary pump. The experiment was carried out in two trials consisting of duplicate studies.

[2] = test system: MDA-MB-231 breast cancer cells; assay: MTS cell viability assay with UV-A irradiation; type: cell-based
Method: as §1

- Sulfide Concentration 30 Minutes After UV Exposure ([1]; starting concentration 10 μM): 3.3 ± 1.4 µM
Compound: O=S(=O)(Oc1ccccc1)c1ccc2c(c1)c1cc(-c3ccc(-c4ccccc4)cc3)ccc1[s+]2[O-] (stereo not shown) [Compound 5a]

Compound: CC(=O)OCc1ccc2c(c1)c1cc(COC(C)=O)ccc1[s+]2[O-] [MA-3, 5-oxo-2,8-diacetoxymethyldibenzothiophene]
- % cell viability ([2]; compound added pre-UV exposure, cells irradiated with UV-A): decreases % cell viability
- % cell viability ([2]; compound added pre-UV exposure, cells irradiated with UV-A, listed as 5-oxo-2,8-diacetoxymethyldibenzothiophene): a decrease in % cell viability
- Sulfide (MA-4) Concentration ([1]; Concentration of MA-3 10 μM): 9.653 ± 0.170 µM
- Sulfide (MA-4) Concentration ([1]; Concentration of MA-3 100 μM): 90.02 ± 4.87 µM
- Sulfide Concentration 30 Minutes After UV Exposure ([1]; starting concentration 100 μM): 90 ± 3 µM

Compound: CC(=O)OCc1ccc2sc3ccc(COC(C)=O)cc3c2c1 [MA-4]
- % cell viability ([2]; any of the UV-exposure conditions (no UV, pre-UV, post-UV)): did not decrease % cell viability
